According to patent publication US20090017103A1, “Antisense oligonucleotides for prevention of metastasis formation of cancer cells” (priority 2003, published 2009):
Marks after values point to notes of the source that are not given here.

Tests used:
Assay type in all cases: cell-based, human
[1] = system: bone sialoprotein II; assay: Western blot of bone sialoprotein II expression after exposure to ASOs; details: 10 μM
[2] = system: osteonectin; assay: Western blot of osteonectin expression after exposure to ASOs; details: for osteonectin expression in relation to untreated control (100%): single exposure, lipofectamine, 10 μM
[3] = system: MDA-MB-231 breast cancer cells; assay: Clonogenicity assay (colony formation); details: for inhibition of colony formation (colony growth inhibition): single exposure
Experimental: For determining the response of MDA-MB-231 colony formation to exposure with antisense oligonucleotides and erucylphospho-NNN-trimethylpropanolamine (ErPC3) the following procedure was used. MDA-MB-231 cells were treated for various periods of time (see below), harvested and counted. Cells (5000) were then transferred into semi-solid medium containing 0.8t RPMI-methylcellulose and 30% FBS. Cells were plated onto 3.5 cm Petri-dishes (1 ml/dish) (NUNC, Wiesbaden, Germany) and usual cell culture conditions (37° C., 5% CO2 in humidified air) were applied. Colony formation (clusters of 30 or more cells) was visualized by staining with 3-[4,5-dimethylthiazol-2-yl]-2,5-diphenyltetrazolium-bromide (MTT; Serva, Heidelberg, Germany) and the resulting dark blue colonies were scored by an inverted microscope after 5-7 days. At least three dishes per treatment protocol were used.
Pending on the duration of treatment, 1×10^5-3×10^5 cells were transferred onto 6 well plates (Nunc, Wiesbaden, Germany) and grown for 24 h. For transfection, ASO stock solutions were prepared in medium without FBS. According to the protocol of the manufacturer, the respective ASO stock solution was mixed with lipofectamine to allow ASO-liposome complexes to form. To 200 μl medium containing ASO quantities resulting in 10 μM (Western blot and in vivo model) and in 5, 10, or 20 μM (clonogenicity assay) final ASO-concentrations, an equal volume of medium without FBS was added containing 5, 10, or 20 μl lipofectamine, respectively. In addition to the ASO treatment, a NSO control (20 μM final concentration with 20 μl lipofectamine) and a lipofectamine control (20 μl) were used. […] After 12 h the medium was changed, and cells were further grown for 48-72 h. In the case of a sequential combination treatment this first cycle was repeated with the respective combination partner.
The alkylphosphocholine ErPC3 was synthesized and provided by Prof. H. Eibl (MPI of Biophysical Chemistry, Göttingen, FRG). For treating MDA-MB-231 cells, ErPC3 which was kept as stock solution in ethanol and PBS (10 mM; ratio of diluents 1:1; V:V), was diluted in PBS resulting in final concentrations of 10, 14, and 20 μM. The medium containing ErPC3 was changed after 24 h in all experiments and the cells were further grown for 48-72 h without ErPC3 (for details of sequential exposure see below).
Sequential combination treatment consisted of two or three treatment cycles. The two cycle treatment started either with the ASO and was followed by ErPC3 or was performed with the reverse sequence. The three cycle treatment started either with two cycles of ASO followed by ErPC3 or an initial exposure to ErPC3 was followed by two cycles with an ASO.
Colony counts are presented as mean with corresponding standard deviation. For comparison of incidences between treatment groups the x^2 test was used and for comparison of the lesion sizes the Kruskal-Wallis test was applied. P values≦0.05 were considered significant. Predicted theoretical values of combinations were calculated according to the equation: C=a×b/100, where a and b are colony counts in percent of untreated control obtained in response to single agents. For each concentration applied theoretical values were calculated and compared with the real value of the combination. In addition, isobologram and multiple drug effect analysis was examined by a suitable program (CalcuSyn, Biosoft, Ferguson, USA) to study the nature of the interaction observed. For this purpose, the dose-effect curve for each drug alone was determined based on the experimental observations using the median-effect principle; the combination index (CI) for each combination was then calculated according to the following equation:
CI=(D)1/(Dx)1+(D)2/(Dx)2+(D1)×(D2)/(Dx)1×(Dx)2
where (D)1 and (D)2 are the doses of drug 1 and drug 2 that have x effect when used in combination and (Dx)1 and (Dx)2 are the doses of drug 1 and drug 2 that have the same x effect when used alone. […]

[4] = MDA-MB231, single exposure, electroporation
[5] = MDA-MB231, single exposure, lipofectamine
[6] = MDA-MB231, twofold exposure, lipofectamine
[7] = MDA-MB231^F (growing without FBS), single exposure, lipofectamine
[8] = MDA-MB435s, single exposure, lipofectamine
[9] = MDA-MB231^F (growing without FBS)

Row | Compound | bone sialoprotein II expression in relation to untreated control (100%) [1, 4] | bone sialoprotein II expression in relation to untreated control (100%) [1, 5] | bone sialoprotein II expression in relation to untreated control (100%) [1, 7] | bone sialoprotein II expression in relation to untreated control (100%) [1, 8] | osteonectin expression in relation to untreated control (100%) ([2]; MDA-MB231) | osteonectin expression in relation to untreated control (100%) [2, 9] | osteonectin expression in relation to untreated control (100%) ([2]; MDA-MB435s) | further results
1 | 5′-CTGCCTTCCGGTCTCTGTGG-3′ (antisense CTGCCTTCCGGTCTCTGTGG; all phosphorothioate, sugars by position and methylation of C not given here) [ASO-BSPII-8] | 34% | 62% | 101% | 32% | – | – | – | bone sialoprotein II expression in relation to untreated control (100%) [1, 6]: 25%
2 | 5′-ATGTTATAGTTCTTCTCGAA-3′ [ASO-ON-5] | – | – | – | – | 30% | 22% | 27% | decrease of osteonectin ([2]; MDA-MB-231 cells): 70%
3 | 5′-TTCCGGTCTCTGTGGTGTCT-3′ [ASO-BSPII-7] | 25% | 58% | 37% | 51% | – | – | – | bone sialoprotein II expression in relation to untreated control (100%) [1, 6]: 22%
4 | 5′-ATTCTTCATTGTTTTCTCCT-3 (antisense ATTCTTCATTGTTTTCTCCT; all phosphorothioate, sugars by position and methylation of C not given here) [ASO-BSPII-4] | 55% | 73% | 109% | 26% | – | – | – | –
5 | 5′- TGTACTTGTCATTGTCCAGG-3′ (antisense TGTACTTGTCATTGTCCAGG; all phosphorothioate, sugars by position and methylation of C not given here) [ASO-ON-7] | – | – | – | – | 50% | 32% | 64% | –
6 | 5′-CCATCATCAAATTCTCCTAC-3′ (antisense CCATCATCAAATTCTCCTAC; all phosphorothioate, sugars by position and methylation of C not given here) [ASO-ON-2] | – | – | – | – | 61% | 17% | 64% | –
7 | 5′-CTTCATCACTTTCCTTCTCT-3′ (antisense CTTCATCACTTTCCTTCTCT; all phosphorothioate, sugars by position and methylation of C not given here) [ASO-BSPII-5] | 63% | 27% | 101% | 41% | – | – | – | bone sialoprotein II expression in relation to untreated control (100%) [1, 6]: 46%
8 | 5′-ACTGGTGGTGGTAGTAATTC-3′ (antisense ACTGGTGGTGGTAGTAATTC; all phosphorothioate, sugars by position and methylation of C not given here) [ASO-BSPII-9] | 46% | 35% | 84% | 49% | – | – | – | –
9 | 5′-AGGTCACAGGTCTCGAAAAA-3′ (antisense AGGTCACAGGTCTCGAAAAA; all phosphorothioate, sugars by position and methylation of C not given here) [ASO-ON-6] | – | – | – | – | 52% | 44% | 56% | –
10 | CCCCCCCC/C=C\CCCCCCCCCCCCOP(=O)([O-])OCCC[N+](C)(C)C [ErPC3, Erucylphospho-NNN-trimethylpropanolamine, reference compound] | – | – | – | – | – | – | – | % Control ([3]; Exp. III a, 14 μM): 52%; Mean colony no. ([3]; Exp. III a, 14 μM, control 456): 239^5); % Control ([3]; Experiment I, single treatment, 10 μM): 89%; Mean colony no. ([3]; Experiment I, single treatment, 10 μM, control 778): 691^8); % Control ([3]; Experiment I, single treatment, 14 μM): 55%; Mean colony no. ([3]; Experiment I, single treatment, 14 μM, control 778): 425^7); % Control ([3]; Experiment I, single treatment, 20 μM): 22%; Mean colony no. ([3]; Experiment I, single treatment, 20 μM, control 778): 169; % Control ([3]; Experiment II, single treatment, 10 μM): 88%; Mean colony no. ([3]; Experiment II, single treatment, 10 μM, control 705): 621^8); % Control ([3]; Experiment II, single treatment, 14 μM): 55%; Mean colony no. ([3]; Experiment II, single treatment, 14 μM, control 705): 385^7); % Control ([3]; Experiment II, single treatment, 20 μM): 25%; Mean colony no. ([3]; Experiment II, single treatment, 20 μM, control 705): 173; % Control ([3]; Experiment III b, 14 μM): 59%; Mean colony no. ([3]; Experiment III b, 14 μM, control 517): 311^5); inhibition of colony formation (colony growth inhibition) ([3]; 10 μM): 11%; inhibition of colony formation (colony growth inhibition) ([3]; 14 μM): 45%; inhibition of colony formation (colony growth inhibition) ([3]; 20 μM): 78%
11 | 5′-AGATCCAGGCCCTCATGGTG -3′ (antisense AGATCCAGGCCCTCATGGTG; all phosphorothioate, sugars by position and methylation of C not given here) [ASO-ON-1] | – | – | – | – | 39^3) % | 44% | 46% | –
12 | 5′-TCACTGGTGGTGGTAGTAAT-3′ (antisense TCACTGGTGGTGGTAGTAAT; all phosphorothioate, sugars by position and methylation of C not given here) [ASO-BSPII-10] | 40% | 33% | 30% | 39% | – | – | – | –
13 | 5′-CTTCATTGTTTTCTCCTTCA-3′ (antisense CTTCATTGTTTTCTCCTTCA; all phosphorothioate, sugars by position and methylation of C not given here) [ASO-BSPII-3] | 44% | 97% | 93% | 22% | – | – | – | –
14 | 5′-ATTTTGGTGATTGCTTCCTC-3′ (antisense ATTTTGGTGATTGCTTCCTC; all phosphorothioate, sugars by position and methylation of C not given here) [ASO-BSPII-2] | 94% | 38% | 94% | 26% | – | – | – | –
15 | 5′-TGATTGCTTCCTCTGGCAGT-3′ (antisense TGATTGCTTCCTCTGGCAGT; all phosphorothioate, sugars by position and methylation of C not given here) [ASO-BSPII-1] | 78% | 45% | 58% | 16% | – | – | – | bone sialoprotein II expression in relation to untreated control (100%) [1, 6]: 19^2) %
